Source: US10766882B2, “1,2-naphthoquinone based derivative and method of preparing the same” (YUNGJIN PHARM. CO., LTD., priority 2013, dated 2020)

Key:
[1] = target: NQO1 protein (Homo sapiens, UniProt P15559); assay: NQO1 activity measurement (cytochrome C reduction); assay type: biochemical; conditions: 5 ng NQO1 protein, 200 μM NADH, 77 μM cytochrome C, 37° C., absorbance 550 nm for 10 minutes
Method: An enzyme reaction solution included 25 mM Tris/HCl (pH 7.4), 0.14% bovine serum albumin, 200 μM NADH, 77 μM cytochrome C, and 5 ng of NQO1 protein. Enzymatic reaction was initiated by adding NADH and performed at 37° C. In this regard, a reaction rate was measured by observing absorbance, which was increased due to reduction of cytochrome C, at 550 nm for 10 minutes and NQO1 activity was represented as an amount of reduced cytochrome C [nmol cytochrome C reduced/min/μg protein].
Extinction coefficient for cytochrome C:21.1 mmol/L/cm=21.1 μmol/ml/cm

[2] = test system: C57BL/6J Lep ob/ob mice; assay: Weight loss effects in obese mice (ob/ob); assay type: in vivo; conditions: vs 0.1% SLS controls
Method: 10 week-old C57BL/6J Lep ob/ob mice having genetic obesity characteristics available from ORIENTBIO were prepared. Two mice were raised in each polycarbonate breeding cage (200 W×260 L×130H (mm), Three-shine) in which temperature was 20 to 24° C., relative humidity was 35 to 65%, illuminance was 150 to 300 lux, night and day were 12 hours, and exhaust was performed at 10 to 15 air changes per hour. As a feed, low fat diet (11.9 kcal % fat, 5053, Labdiet) manufactured by ORIENTBIO was used. The feed was contained in a feeder and free intake was allowed. As drinking water, water, which was contained in a 250 mL polycarbonate based bottle, purified through a filter and a sterilizer was used and free intake was allowed.
The compound according to Example 1 synthesized in the present invention was orally administered to three C57BL/6J Lep ob/ob mice in amounts of 40 mg/kg, 80 mg/kg, and 120 mg/kg, respectively, once every day for two weeks. For administration, a disposable syringe fitted with a sonde for oral administration was used and 10 ml/kg of the compound was orally administered into the stomach. As controls, three C57BL/6J Lep ob/ob mice were administered 0.1% sodium lauryl sulfate (SLS) in an amount of 120 mg/kg in the same manner as described above. After administration, a time-dependent weight increase ratio, weight change, and intake amount were measured and results are illustrated in FIG. 1 below.
Weights of the experimental animals were measured immediately before administration of a test material and seven times a week from an administration initiation day to a test termination day. Increased total weights were calculated by subtracting weights measured on an experiment initiation day from weights measured one day before an experiment termination day. Food intake amounts were calculated by measuring feed supply amounts and remaining amounts twice a week from an initiation day of test material administration to a test termination day for each individual. […]
(§1) Experiments were performed under the same conditions as in Experimental Example 3-1 except that 15 week-old C57BL/6J Lep ob/ob mice having genetic obesity characteristics available from ORIENTBIO were prepared, the compounds according to Examples 5 and 6 were administered to three C57BL/6J Lep ob/ob mice in an amount of 150 mg/kg, 150 mg/kg of 0.1% SLS was administered to each of three C57BL/6J Lep ob/ob mice as controls, and experiments were performed for a total of one week. Weight increase ratios, weight change, and intake amounts depending on administration time were measured and results are illustrated in FIG. 5 below.
as §1, with “that 10” for “that 15”, “Examples 8, 9,” for “Examples 5”, “and 12” for “and 6”, “FIG. 6” for “FIG. 5”
Experiments were performed under the same conditions as in Experimental Example 3-1 except that 6 week-old C57BL/6J Lep ob/ob mice having genetic obesity characteristics available from ORIENTBIO were prepared, the compounds according to Examples 17, 18, 22, and 23 were administered to three C57BL/6J Lep ob/ob mice in an amount of 100 mg/kg, 100 mg/kg of 0.1% SLS was administered to each of three C57BL/6J Lep ob/ob mice as controls, and experiments were performed for a total of one week. Weight increase ratios, weight change, and intake amounts depending on administration time were measured and results are illustrated in FIG. 10 below. […]

[3] = test system: Cells; assay: Measurement of lactate change amount within cells; assay type: cell-based; conditions: PCA extract of cells, lactate measured from supernatant (Megazyme, K-LATE)
Method: Cells were treated with 400 μl of 6% PCA, and then collected and extracted. Centrifugation (13,000 rpm, 10 min) was performed. A precipitate was dried using a Speed-Vac and then a weight of dried precipitate was measured. A supernatant was neutralized using 400 μl of 1 M KOH and a final volume thereof was adjusted to 1 ml using 0.33 M KH2PO4/K2HPO4, pH 7.5. Centrifugation (13,000 rpm, 10 min) was performed and the amount of lactate was measured from a supernatant (Megazyme, K-LATE).

[4] = Exp. Ex. 3-13, FIG. 16: 6 week-old ob/ob mice, 100 mg/kg oral, one week
[5] = Exp. Ex. 3-6, FIG. 6: 10 week-old ob/ob mice, 150 mg/kg oral, one week
[6] = Exp. Ex. 3-11, FIG. 14: 6.5 week-old ob/ob mice, 100 mg/kg oral, one week
[7] = Exp. Ex. 3-3, FIG. 3: 11 week-old ob/ob mice, 100 mg/kg oral, total of 6 days
[8] = Exp. Ex. 3-7, FIG. 10: 6 week-old ob/ob mice, 100 mg/kg oral, one week
[9] = Exp. Ex. 3-12, FIG. 15: 6 week-old ob/ob mice, 100 mg/kg oral, two weeks

NQO1 protein, sequence (P15559 whole entry, species assumed): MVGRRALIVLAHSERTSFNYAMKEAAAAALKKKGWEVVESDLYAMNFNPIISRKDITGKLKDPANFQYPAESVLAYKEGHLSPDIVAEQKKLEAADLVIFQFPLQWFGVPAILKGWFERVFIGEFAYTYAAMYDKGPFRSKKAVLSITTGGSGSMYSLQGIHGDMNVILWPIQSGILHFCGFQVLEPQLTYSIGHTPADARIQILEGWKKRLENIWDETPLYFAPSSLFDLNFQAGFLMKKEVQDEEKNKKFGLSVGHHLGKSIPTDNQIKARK

CCc1nc2c([nH]1)C(=O)C(=O)c1cc(Cl)ccc1-2 [Example 45, 7-chloro-2-ethyl-3H-naphtho[2,1-d]imidazole-4,5-dione]
NQO1 activity (5 μM, [nmol cytochrome C reduced/min/μg protein]) [1]: 188.6 nmol cytochrome C reduced/min/μg protein | intake amount [2, 4]: significantly decreased in some sections | weight change [2, 4]: significantly decreased in some sections | weight increase ratio [2, 4]: significantly decreased in some sections | Lactate change amount within cells (nmol/mg cell) [3]: 5.7 nmol/mg cell

CC(C)Cc1nc2c([nH]1)C(=O)C(=O)c1ccccc1-2 [Example 8]
NQO1 activity (5 μM, [nmol cytochrome C reduced/min/μg protein]) [1]: 213 nmol cytochrome C reduced/min/μg protein | intake amount [2, 5]: significantly decreased | weight change [2, 5]: significantly decreased | weight increase ratio [2, 5]: significantly decreased | Lactate change amount within cells (nmol/mg cell) [3]: 10.0 nmol/mg cell

CCc1nc2c(n1C)C(=O)C(=O)c1ccccc1-2 [Example 38, 2-ethyl-3-methyl-3H-naphtho[2,1-d]imidazole-4,5-dione]
NQO1 activity (5 μM, [nmol cytochrome C reduced/min/μg protein]) [1]: 142.1 nmol cytochrome C reduced/min/μg protein | intake amount [2, 6]: significantly decreased in some sections | weight change [2, 6]: significantly decreased in some sections | weight increase ratio [2, 6]: significantly decreased in some sections | Lactate change amount within cells (nmol/mg cell) [3]: 5.2 nmol/mg cell

CCc1nc2c(n1C)C(=O)C(=O)c1cc(F)ccc1-2 [Example 41, 2-ethyl-7-fluoro-3-methyl-3H-naphtho[2,1-d]imidazole-4,5-dione]
NQO1 activity (5 μM, [nmol cytochrome C reduced/min/μg protein]) [1]: 148.4 nmol cytochrome C reduced/min/μg protein | intake amount [2, 4]: significantly decreased in some sections | weight change [2, 4]: significantly decreased in some sections | weight increase ratio [2, 4]: significantly decreased in some sections | Lactate change amount within cells (nmol/mg cell) [3]: 7.2 nmol/mg cell

O=C1C(=O)c2[nH]c(C3CC3)nc2-c2ccccc21 [Example 12]
NQO1 activity (5 μM, [nmol cytochrome C reduced/min/μg protein]) [1]: 184 nmol cytochrome C reduced/min/μg protein | intake amount [2, 5]: significantly decreased | weight change [2, 5]: significantly decreased | weight increase ratio [2, 5]: significantly decreased | Lactate change amount within cells (nmol/mg cell) [3]: 7.0 nmol/mg cell

Cc1nc2c(n1C)C(=O)C(=O)c1ccccc1-2 [Example 96]
NQO1 activity (5 μM, [nmol cytochrome C reduced/min/μg protein]) [1]: 21.4 nmol cytochrome C reduced/min/μg protein | intake amount [2, 6]: significantly decreased in some sections | weight change [2, 6]: significantly decreased in some sections | weight increase ratio [2, 6]: significantly decreased in some sections | Lactate change amount within cells (nmol/mg cell) [3]: 5.7 nmol/mg cell

CC(C)c1nc2c(n1C)-c1ccccc1C(=O)C2=O [Example 3, 2-isopropyl-1-methyl-1H-naphtho[2,1-d]imidazole-4,5-dione]
NQO1 activity (5 μM, [nmol cytochrome C reduced/min/μg protein]) [1]: 139 nmol cytochrome C reduced/min/μg protein | intake amount [2, 7]: significantly decreased | weight increase ratio [2, 7]: significantly decreased | Lactate change amount within cells (nmol/mg cell) [3]: 11.3 nmol/mg cell

CC(C)c1nc2c([nH]1)C(=O)C(=O)c1cc(N)ccc1-2 [Example 18]
NQO1 activity (5 μM, [nmol cytochrome C reduced/min/μg protein]) [1]: 177.5 nmol cytochrome C reduced/min/μg protein | intake amount [2, 8]: significantly decreased in some sections | weight change [2, 8]: significantly decreased in some sections | weight increase ratio [2, 8]: significantly decreased in some sections | Lactate change amount within cells (nmol/mg cell) [3]: 6.6 nmol/mg cell

CCc1nc2c([nH]1)C(=O)C(=O)c1ccccc1-2 [Example 9]
NQO1 activity (5 μM, [nmol cytochrome C reduced/min/μg protein]) [1]: 172 nmol cytochrome C reduced/min/μg protein | intake amount [2, 5]: significantly decreased | weight change [2, 5]: significantly decreased | weight increase ratio [2, 5]: significantly decreased | Lactate change amount within cells (nmol/mg cell) [3]: 8.0 nmol/mg cell

CC(C)c1nc2c(n1Cc1ccc(F)cc1)C(=O)C(=O)c1ccccc1-2 [Example 33]
NQO1 activity (5 μM, [nmol cytochrome C reduced/min/μg protein]) [1]: 152.5 nmol cytochrome C reduced/min/μg protein | intake amount [2, 9]: significantly decreased in some sections | weight change [2, 9]: significantly decreased in some sections | weight increase ratio [2, 9]: significantly decreased in some sections | Lactate change amount within cells (nmol/mg cell) [3]: 4.7 nmol/mg cell

CC(C)c1nc2c([nH]1)C(=O)C(=O)c1cc(F)ccc1-2 [Example 22]
NQO1 activity (5 μM, [nmol cytochrome C reduced/min/μg protein]) [1]: 206.1 nmol cytochrome C reduced/min/μg protein | intake amount [2, 8]: significantly decreased in some sections | weight change [2, 8]: significantly decreased in some sections | weight increase ratio [2, 8]: significantly decreased in some sections | Lactate change amount within cells (nmol/mg cell) [3]: 7.3 nmol/mg cell

CCc1nc2c(n1CC(F)(F)F)C(=O)C(=O)c1ccccc1-2 [Example 40, 2-ethyl-3-(2,2,2-trifluoroethyl)-3H-naphtho[2,1-d]imidazole-4,5-dione]
NQO1 activity (5 μM, [nmol cytochrome C reduced/min/μg protein]) [1]: 192.9 nmol cytochrome C reduced/min/μg protein | Lactate change amount within cells (nmol/mg cell) [3]: 9.7 nmol/mg cell

CCc1nc2c([nH]1)C(=O)C(=O)c1cc(NCc3ccc(F)cc3)ccc1-2 [Example 47]
NQO1 activity (5 μM, [nmol cytochrome C reduced/min/μg protein]) [1]: 41.0 nmol cytochrome C reduced/min/μg protein | Lactate change amount within cells (nmol/mg cell) [3]: 5.9 nmol/mg cell

CC(C)c1nc2c(n1Cc1ccccc1)C(=O)C(=O)c1ccccc1-2 [Example 32]
NQO1 activity (5 μM, [nmol cytochrome C reduced/min/μg protein]) [1]: 124.2 nmol cytochrome C reduced/min/μg protein | Lactate change amount within cells (nmol/mg cell) [3]: 5.8 nmol/mg cell

CCc1nc2c([nH]1)C(=O)C(=O)c1cc(N)ccc1-2 [Example 25]
NQO1 activity (5 μM, [nmol cytochrome C reduced/min/μg protein]) [1]: 173.1 nmol cytochrome C reduced/min/μg protein | Lactate change amount within cells (nmol/mg cell) [3]: 6.1 nmol/mg cell
